For 1 compound, Tmax and half-life results are on record in patent publication US20150359789A1, “METHODS FOR TREATING PRURITUS” (TREVI THERAPEUTICS, INC., priority 2014, published 2015).

Where a name gives a salt, the structure may show the parent alone.

The nature of the data set: Oral pharmacokinetics of nalbuphine HCl solution versus tablets, fed and fasted, across studies. To be noted: human, plasma.

In the case of `Oc1ccc2c3c1O[C@H]1[C@@H](O)CC[C@@]4(O)[C@@H](C2)N(CC2CCC2)CC[C@]314` [nalbuphine, 17-(cyclobutylmethyl)-4,5α-epoxymorphinan-3,6α,14-triol, hydrochloride], the Tmax was in the range of 0.5 to 1 h and the half-life was 6.87 to 6.99 h.

What is called Tmax is the time at which the peak concentration occurs. By half-life is commonly meant the time in which the quantity being followed falls by half.
